Source: patent US4956171A, “Transdermal drug delivery using a dual permeation enhancer and method of performing the same” (Paco Pharmaceutical Services, Inc., priority 1989, dated 1990)
Structures can show the parent of a compound that is named as a salt. Where two headings read alike, the source gives them in different places.

How the values were obtained:
[1] = In vitro flux of drug from saturated test solutions through human cadaver skin into an infinite sink, Franz diffusion cell; format: in vitro ADME
Experimental: For the evaluation of the degree of permeation enhancement, saturated test solutions of buprenorphine HCl in methyl laurate and/or sucrose cocoate were directly applied onto the epidermis side of human cadaver skin loaded between donor and receptor compartments of a standard Franz diffusion cell. The cell was kept at 35° C. during the diffusion study. […] The sucrose cocoate used for the test is commercially available in a 48 wt. % aqueous solution under the trade name Crodesta® SL-40, through Croda, Inc.

[2] = optimized delivery system, constant rate over extended time periods
[3] = relative to morphine; background statement; cited from earlier work
[4] = cited from earlier work
[5] = on over dosage; cited from earlier work
[6] = In vitro release rate from the reservoir-type system into an infinite sink; conditions: Example 1 reservoir-type system
[7] = Table 4, saturated in 48 wt. % sucrose cocoate aqueous solution
[8] = Table 4, saturated in 100 wt. % methyl laurate
[9] = Table 4, saturated in methyl laurate : 48 wt. % sucrose cocoate aqueous solution 3:7
[10] = Example 1 reservoir-type system, 35° C.

In the case of `C[C@]12CC[C@@H]3c4ccc(O)cc4CC[C@H]3[C@@H]1CC[C@@H]2O` [Estradiol], the “Flux, Solution B” value [1, 7] is reported as 7.4 μg/cm^2 /day and the “Flux, Solution A” value [1, 8] is reported as 4.3 μg/cm^2 /day.

With `C[C@]12C=CC(=O)C=C1CC[C@@H]1[C@@H]2[C@@H](O)C[C@@]2(C)[C@H]1CC[C@]2(O)C(=O)CO` [Prednisolone] the “Flux, Solution B” value [1, 7] was 8 μg/cm^2 /day, the “Flux, Solution A” value [1, 8] was 51 μg/cm^2 /day and the “Flux, Solution A:B(3:7)” value [1, 9] was 188 μg/cm^2 /day.

With `CO[C@]12CC[C@@]3(C[C@@H]1[C@](C)(O)C(C)(C)C)[C@H]1Cc4ccc(O)c5c4[C@@]3(CCN1CC1CC1)[C@H]2O5` [buprenorphine] the “steady state buprenorphine flux” value (Example 1 reservoir-type system, 3 wt. % buprenorphine HCl, 35° C.) was “about 5 μg/cm^2 /hr”, the “period over which flux stayed at a constant rate” value [10] was 72 h and the “time to steady state flux” value [10] was “an hour”. For the same molecule, the “period over which steady state flux remained substantially constant” value (Example 3 laminated matrix-type system) was 72 h, the “steady state buprenorphine flux” value (Example 3 laminated matrix-type system, 5.5 wt. % buprenorphine HCl) was “about 3.5 μg/cm^2 /hr” and the “in vitro human cadaver skin delivery rate” value (dual permeation enhancer sucrose cocoate + methyl laurate, full range) was 1-10 μg/cm^2 /hr. The “in vitro human cadaver skin delivery rate, preferable range” value (dual permeation enhancer sucrose cocoate + methyl laurate, preferably) was 2-6 μg/cm^2 /hr, the skin irritation [2] was “without uncomfortable skin irritation” and the “analgesic activity, times more potent than morphine” value [3] was ~30 times. For the same molecule, the “liver and intestinal metabolism” value ([4]; background statement) was “extensive liver and intestinal metabolism”, the bioavailability ([4]; due to extensive liver and intestinal metabolism) was “poor bioavailability” and the side effects [5] was “severe side effects, particularly respiratory depression”. The “release through the microporous membrane” value ([6]; infinite sink) was “rapid release” and the “loaded amount depleted by release into an infinite sink” value ([6]; within the first 12 hours) was “more than 70 wt. %”.

For `O=C(O)Cc1ccccc1Nc1c(Cl)cccc1Cl` [Dichlofenac Sodium], the “Flux, Solution A” value [1] was 14 μg/cm^2 /day, the “Flux, Solution A:B(3:7)” value [1] was 215 μg/cm^2 /day and the “Flux, Solution B” value [1] was 146 μg/cm^2 /day.

For `COC(=O)C1=C(C)NC(C)=C(C(=O)OC)C1c1ccccc1[N+](=O)[O-]` [Nifedipine], the “Flux, Solution B” value [1, 7] was 14 μg/cm^2 /day, the “Flux, Solution A” value [1, 8] was 15 μg/cm^2 /day and the “Flux, Solution A:B(3:7)” value [1, 9] was 23 μg/cm^2 /day.

For `CO[C@]12CC[C@@]3(C[C@@H]1[C@](C)(O)C(C)(C)C)[C@H]1Cc4ccc(O)c5c4[C@@]3(CCN1CC1CC1)[C@H]2O5` [buprenorphine HCl], the “skin flux, Solution B” value ([1]; Table 3, saturated in 48 wt. % sucrose cocoate aqueous solution, 35° C.) was 100 μg/cm^2 /day, the “skin flux, Solution A” value ([1]; Table 3, saturated in 100 wt. % methyl laurate, 35° C.) was 8 μg/cm^2 /day and the “skin flux, Solution A:B(1:9)” value ([1]; Table 3, saturated in methyl laurate : 48 wt. % sucrose cocoate aqueous solution 1:9, 35° C.) was 226 μg/cm^2 /day. The amount delivered (Example 1 reservoir-type system, during the 72 hour period) was 360 μg/cm^2 and the “loaded amount transdermally delivered” value (Example 1 reservoir-type system, over 72 hours, initial load about 1800 μg/cm^2) was “about 20 wt. %”.

For `CC(C)Cc1ccc(C(C)C(=O)O)cc1` (stereo not drawn) [Ibuprofen], the “Flux, Solution B” value [1, 7] was 547 μg/cm^2 /day, the “Flux, Solution A” value [1, 8] was 586 μg/cm^2 /day and the “Flux, Solution A:B(3:7)” value [1, 9] was 1897 μg/cm^2 /day.
